# Columns and labels:
# Gamma (DGK gamma) = Gamma (DGK gamma) (Homo sapiens, UniProt P49619); assay: DGK isoform % Activity screen; type: biochemical
# [1] = system: M3K2/M3K3 (Mitogen-activated protein kinase kinase kinase 2); assay: SILAC LC-MS ATP acyl phosphate probe competition, native kinases in HEK293T; type: binding, Homo sapiens; conditions: site Lys2; ATP 1 mM; Ketanserin, Ritanserin 100 μM; RF001 1 mM
# Procedure: Proteomes were diluted to 2 mg/ml in kinase buffer. The light and heavy proteomes (0.5 mg, 250 μL total reaction volume) were pre-treated with vehicle or compound, respectively (5 μL, DMSO (light) or 50× stock in DMSO (heavy)), mixed gently, and incubated at 25° C. for 30 min. […] After incubation, matched light and heavy proteomes were transferred and mixed in a 1:1 ratio in a two-dram vial containing 4:1:3 MeOH/CHCl3/H2O (2 mL MeOH, 500 AL CHCl3, 1.5 mL H2O) for extraction of proteins to remove excess probe, quickly vortexed, and centrifuged at 1,400×g for 3 min to pellet protein. Organic and aqueous layers were removed using a Pasteur pipette, and the protein pellet was transferred to a screw-top tube in 600 μL MeOH. A second extraction was performed by adding CHCl3 (150 μL) and H2O (600 μL) to each sample, vortexed, and centrifuged at 1,400×g for 3 min to pellet protein. Organic and aqueous layers were removed by pipetting. MeOH added to pellet (600 μL) and pellets were re-suspended by sonication (3×1 sec pulse, 20% amplitude) for a final extraction. Samples were then centrifuged at 17,000×g for 5 min to pellet protein and MeOH was removed by pipetting. The pellets were re-suspended in 10 M urea/25 mM ammonium bicarbonate ([…]), brought to a final volume of 1 mL with 25 mM ammonium bicarbonate, reduced with 10 mM DTT for 15 min at 65° C. allowed to cool, and then alkylated with 40 mM iodoacetamide for 30 min at 25° C. in the dark. To desalt the samples, each was transferred to a two-dram glass vial, and to the vial 4:1:2 MeOH/CHCl3/H2O (2 mL MeOH, 500 AL CHCl3, 1 mL H2O) was added. The vials were vortexed quickly, spun at 1.400×g for 3 min to pellet protein, and aqueous and organic layers were removed using a Pasteur pipette. The resulting protein pellet was transferred to a screw-top tube in 600 μL MeOH, and then CHCl3 (150 μL) and HO (600 μL) were added to extract protein a second time. […]
# (§1) The peptide samples were analyzed by liquid chromatography-mass spectrometry. […]
# [2] = system: KS6A4/KS6A5 (Ribosomal protein S6 kinase alpha 4); assay: as above; type: binding, Homo sapiens (Human); conditions: site ATP Loop; ATP 1 mM; Ketanserin, Ritanserin 100 μM; RF001 1 mM
# Procedure: (§2) Proteomes were diluted to 2 mg/ml in kinase buffer. The light and heavy proteomes (0.5 mg, 250 μL total reaction volume) were pre-treated with vehicle or compound, respectively (5 μL, DMSO (light) or 50× stock in DMSO (heavy)), mixed gently, and incubated at 25° C. for 30 min. […] After incubation, matched light and heavy proteomes were transferred and mixed in a 1:1 ratio in a two-dram vial containing 4:1:3 MeOH/CHCl3/H2O (2 mL MeOH, 500 AL CHCl3, 1.5 mL H2O) for extraction of proteins to remove excess probe, quickly vortexed, and centrifuged at 1,400×g for 3 min to pellet protein. Organic and aqueous layers were removed using a Pasteur pipette, and the protein pellet was transferred to a screw-top tube in 600 μL MeOH. A second extraction was performed by adding CHCl3 (150 μL) and H2O (600 μL) to each sample, vortexed, and centrifuged at 1,400×g for 3 min to pellet protein. Organic and aqueous layers were removed by pipetting. MeOH added to pellet (600 μL) and pellets were re-suspended by sonication (3×1 sec pulse, 20% amplitude) for a final extraction. Samples were then centrifuged at 17,000×g for 5 min to pellet protein and MeOH was removed by pipetting. The pellets were re-suspended in 10 M urea/25 mM ammonium bicarbonate ([…]), brought to a final volume of 1 mL with 25 mM ammonium bicarbonate, reduced with 10 mM DTT for 15 min at 65° C. allowed to cool, and then alkylated with 40 mM iodoacetamide for 30 min at 25° C. in the dark. To desalt the samples, each was transferred to a two-dram glass vial, and to the vial 4:1:2 MeOH/CHCl3/H2O (2 mL MeOH, 500 AL CHCl3, 1 mL H2O) was added. The vials were vortexed quickly, spun at 1.400×g for 3 min to pellet protein, and aqueous and organic layers were removed using a Pasteur pipette. The resulting protein pellet was transferred to a screw-top tube in 600 μL MeOH, and then CHCl3 (150 μL) and HO (600 μL) were added to extract protein a second time. The samples were vortexed quickly, centrifuged at 1,400×g to pellet protein, and the aqueous and organic layers were removed by pipetting. Resulting protein pellet was suspended in MeOH (600 μL) via sonication (3×1 sec pulse, 20% amplitude), centrifuged at 17,000×g for 5 min to pellet protein, and MeOH removed by pipetting. Protein pellets were then re-suspended in 25 mM ammonium bicarbonate (500 μL) and digested with 7.5 μg Trypsin/Lys-C(Promega, 15 μL, 0.5 μg/μL) for 3 h at 37° C. Avidin-agarose beads (Thermo Scientific Pierce, 100 AL aliquot per sample) were washed three times by adding 10 mL DPBS, centrifuged at 1,400×g for 1 min, and decanting. This wash step was repeated for a total of 3 times. Digested protein samples were mixed with washed avidin beads (100 μL) and brought to a volume of 5.5 mL with DPBS in a 15 mL conical and rotated for 1 h to enrich samples for the covalent desthiobiotin modification. The beads were washed with 25 mM ammonium bicarbonate (3× with 10 mL, centrifuge at 1,400×g for 3 min, decant) and then H2O (3× with 10 mL, centrifuge at 1,400×g for 3 min, decant). Washed beads were then transferred to a low-bind microfuge tube, centrifuged at 1,400×g for 3 min, allowed to rest for 1 min to settle beads, and then excess H2O was removed carefully using a gel-loading pipette tip. To elute peptides, 100 μL of elution buffer (50% acetonitrile, ACN; 0.1% formic acid) was added to each sample and incubated for 3 min. Beads were spun down at 1.400×g for 3 min, allowed to rest for 1 min to settle beads, and then 75 μL of peptide-containing supernatant was removed carefully using a gel-loading pipette tip and transferred to a new low bind centrifuge tube. This step was repeated two more times with 75 μL of elution buffer and all eluent were collected into the same centrifuge tube (˜225 μL total). Peptides were dried on a speed vacuum, resulting peptide samples acidified in 5% (v/v) formic acid, and stored at −80° C. until analysis.
# as §1
# [3] = system: KS6A1/KS6A2/KS6A3 (Ribosomal protein S6 kinase alpha 1); assay: as above; type: binding, Homo sapiens (Human); conditions: site Lys2; ATP 1 mM; Ketanserin, Ritanserin 100 μM; RF001 1 mM
# Procedure: as §2, §1
# [4] = system: STK3/STK4 (Serine/threonine-protein kinase 3); assay: as above; type: binding, Homo sapiens (Human); conditions: site Lys2; ATP 1 mM; Ketanserin, Ritanserin 100 μM; RF001 1 mM
# Procedure: as §2, §1
# [5] = system: MP2K1/MP2K2 (Dual specificity mitogen-activated protein kinase kinase 1); assay: as above; type: binding, Homo sapiens (Human); conditions: site Lys2; ATP 1 mM; Ketanserin, Ritanserin 100 μM; RF001 1 mM
# Procedure: as §2, §1
# [6] = system: AAPK1/AAPK2 (5′-AMP-activated protein kinase catalytic subunit alpha-1); assay: as above; type: binding, Homo sapiens (Human); conditions: site Lys2; ATP 1 mM; Ketanserin, Ritanserin 100 μM; RF001 1 mM
# Procedure: as §2, §1
# [7] = system: MARK3/MARK4 (MAP/microtubule affinity-regulating kinase 3); assay: as above; type: binding, Homo sapiens (Human); conditions: site Lys1; ATP 1 mM; Ketanserin, Ritanserin 100 μM; RF001 1 mM
# Procedure: as §2, §1
# [8] = system: M4K4/MINK1/TNIK (Mitogen-activated protein kinase kinase kinase kinase 4); assay: as above; type: binding, Homo sapiens (Human); conditions: site Lys2; ATP 1 mM; Ketanserin, Ritanserin 100 μM; RF001 1 mM
# Procedure: as §2, §1
# Gamma (DGK gamma), sequence (P49619 whole entry, canonical isoform): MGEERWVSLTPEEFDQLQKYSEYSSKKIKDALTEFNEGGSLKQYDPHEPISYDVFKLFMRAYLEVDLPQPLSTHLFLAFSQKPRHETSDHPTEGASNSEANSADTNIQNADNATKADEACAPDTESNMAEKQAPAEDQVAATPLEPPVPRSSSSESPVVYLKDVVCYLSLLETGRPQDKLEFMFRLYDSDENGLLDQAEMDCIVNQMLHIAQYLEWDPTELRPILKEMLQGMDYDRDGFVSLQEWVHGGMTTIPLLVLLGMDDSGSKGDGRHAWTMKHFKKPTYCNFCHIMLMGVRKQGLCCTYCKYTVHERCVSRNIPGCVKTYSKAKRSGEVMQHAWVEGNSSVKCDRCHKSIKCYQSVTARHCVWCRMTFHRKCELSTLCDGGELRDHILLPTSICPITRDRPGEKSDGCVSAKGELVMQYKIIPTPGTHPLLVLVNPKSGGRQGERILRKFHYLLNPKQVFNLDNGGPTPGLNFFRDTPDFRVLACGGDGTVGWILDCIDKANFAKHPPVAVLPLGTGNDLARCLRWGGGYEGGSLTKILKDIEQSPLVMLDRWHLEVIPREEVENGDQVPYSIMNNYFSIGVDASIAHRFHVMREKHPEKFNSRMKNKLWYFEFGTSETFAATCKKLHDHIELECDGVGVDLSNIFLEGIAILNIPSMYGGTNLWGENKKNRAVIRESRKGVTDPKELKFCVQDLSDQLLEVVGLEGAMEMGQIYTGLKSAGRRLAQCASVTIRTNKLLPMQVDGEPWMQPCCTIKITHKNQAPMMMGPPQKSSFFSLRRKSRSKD
SMILES,activity at 100 µM (Gamma (DGK gamma)),"SILAC ratio, M3K2/M3K3 probe-modified peptide [1]","SILAC ratio, KS6A4/KS6A5 probe-modified peptide [2]","SILAC ratio, KS6A1/KS6A2/KS6A3 probe-modified peptide [3]","SILAC ratio, STK3/STK4 probe-modified peptide [4]","SILAC ratio, MP2K1/MP2K2 probe-modified peptide [5]","SILAC ratio, AAPK1/AAPK2 probe-modified peptide [6]","SILAC ratio, MARK3/MARK4 probe-modified peptide [7]","SILAC ratio, M4K4/MINK1/TNIK probe-modified peptide [8]","activity at 1000 µM (Gamma (DGK gamma); read-out: 1 mM % Activity, Gamma)"
O=C(c1ccc(F)cc1)C1CCN(CCn2c(=O)[nH]c3ccccc3c2=O)CC1 [Ketanserin],24%,1.1,1.3,1.4,1.2,1.3,1.4,1.4,1.3,–
"Fc1ccc(C(=C2CCNCC2)c2ccc(F)cc2)cc1 [RF001, 4-(Bis(4-fluorophenyl)methylene) piperidine]",82%,1.0,1.1,1.2,0.9,0.9,1.1,1.1,1.1,5%
Cc1nc2sccn2c(=O)c1CCN1CCC(=C(c2ccc(F)cc2)c2ccc(F)cc2)CC1 [Ritanserin],55%,1.2,2.2,2.0,1.6,1.9,2.4,2.0,1.8,–
